Data on one compound can be found in patent publication US20150051558A1, “COMPOSITION AND METHOD FOR CORNEAL PROLIFERATION” (UNIVERSITY OF CENTRAL FLORIDA RESEARCH FOUNDATION, INC., priority 2012, published 2015).

The subject of assay [1] is rat cornea. The assay is described as follows: Experiment 2: BrdU staining of cornea after MS-818 ophthalmic drops. It counts as in vivo. The method, then: (§1) According to another example similar to experiment 1, surgeries were performed to remove the left lachrymal gland from sixteen rats. MS-818 was then administered via ophthalmic drop to both eyes of twelve of the rats divided into three dosage groups, 100 μg/ml, 300 μg/ml, and 1 mg/ml. The remaining four rats served as a control group, receiving drops of phosphate buffered saline. The compound was administered three times over a period of three days. BrdU was administered during this time via intra-peritoneal injection. Rats were euthanized seven days after the first compound administration and underwent perfusion. Eyes were sliced in twenty micron slices using a cryostat. The slices were mounted on glass slides. The slides were then stained with monoclonal mouse anti BrdU primary antibody to test for the incorporation of BrdU into nuclei. TRITC conjugated donkey anti mouse secondary antibody was used to detect the primary antibody. Slides were stained with DAPI to visualize the nuclei. Images were captured of the slices in 100× magnification under TRITC, DAPI and FITC fluorescence.

Assay [2] concerns rat cornea. The assay is described as follows: Experiment 1: BrdU staining of cornea after MS-818 ophthalmic drops. In kind it is in vivo. The method, then: as §1, with “Surgeries were” for “According to another example similar to experiment 1, surgeries were”, “groups, 1 mg/ml, 3 mg/ml,” for “groups, 100 μg/ml, 300 μg/ml,”, “and 10” for “and 1”

Entries after “also recorded” stand apart in the source; their conditions may differ.

For `CN1Cc2nc(N3CCCCC3)ncc2C1=O.O=C(O)/C=C\C(=O)O` [MS-818, 2-piperadino-6-methyl-5-oxo-5,6-dihydro-(7H) pyrrole-[3,4-d]pyrimidine maleate], in the assay on rat cornea [1] (eye drop 100 μg/ml, 300 μg/ml, 1 mg/ml, three times over three days, non surgical eye, FIG. 4), the “cell proliferation (BrdU staining) in cornea vs control animal” value is reported as “significant increase in cell proliferation over the control animal”. The “number of nuclei positive for BrdU per field of view in the cornea” value in the assay with rat cornea [1] (eye drop, low, medium and high dose vs control, n=6, FIG. 5) is “significantly (p<0.05) higher than the control; also recorded: significant and dose dependent increase”. In addition, the “proliferation in the non-injured eyes vs non-drug receiving control group” value in the assay on rat cornea [2] (ophthalmic drops, three dosage groups, preliminary results) is recorded as “marked increase in proliferation”. For the same compound, the “BrdU positive signaling within the cornea (cell proliferation)” value in the assay on rat cornea [2] (rat, eye drop, high dosage (1 mg/ml), three times over three days, euthanized seven days after first administration, non surgical eye, FIG. 1B vs control FIG. 1A) is listed as “significantly increased BrdU positive signaling”.
